PubChem BioAssay AID248 (DTP/NCI, 2004)
Toxic doses and inconclusive results are not listed.

Test system: L1210 leukemia ip in BDF1 mice, survival T/C
Experiment: NCI In Vivo Anticancer Drug Screen. Data for tumor model L1210 Leukemia (intraperitoneal) in B6D2F1 (BDF1) mice
Settings: endpoint: mean survival time, higher = longer survival
Procedure, shortened: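 In this screen, tumor-bearing mice given compound are compared to those given vehicle, and their survival values are reported as a treated-to-control quotient.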

[1] = dose: 12.5 mg/kg/injection, schedule: Q04DX003 (ip), vehicle: saline
[2] = dose: 25.0 mg/kg/injection, schedule: Q04DX003 (ip), vehicle: saline
[3] = dose: 100.0 mg/kg/injection, schedule: Q01DX001 (ip), vehicle: carboxymethylcellulose (CMC)
[4] = dose: 200.0 mg/kg/injection, schedule: Q01DX001 (ip), vehicle: carboxymethylcellulose (CMC)
[5] = dose: 400.0 mg/kg/injection, schedule: Q01DX001 (ip), vehicle: carboxymethylcellulose (CMC)
[6] = dose: 75.0 mg/kg/injection, schedule: Q01DX001 (ip), vehicle: saline
[7] = dose: 150.0 mg/kg/injection, schedule: Q01DX001 (ip), vehicle: saline
[8] = dose: 100.0 mg/kg/injection, schedule: Q01DX009 (ip), vehicle: Klucel (hydroxypropylcellulose) (HPC)
[9] = dose: 100.0 mg/kg/injection, schedule: Q04DX003 (ip), vehicle: Klucel (hydroxypropylcellulose) (HPC)
[10] = dose: 200.0 mg/kg/injection, schedule: Q01DX009 (ip), vehicle: Klucel (hydroxypropylcellulose) (HPC)
[11] = dose: 200.0 mg/kg/injection, schedule: Q04DX003 (ip), vehicle: Klucel (hydroxypropylcellulose) (HPC)
[12] = dose: 400.0 mg/kg/injection, schedule: Q01DX009 (ip), vehicle: Klucel (hydroxypropylcellulose) (HPC)
[13] = dose: 400.0 mg/kg/injection, schedule: Q04DX003 (ip), vehicle: Klucel (hydroxypropylcellulose) (HPC)
[14] = dose: 100.0 mg/kg/injection, schedule: Q01DX001 (ip), vehicle: saline with Tween-80
[15] = dose: 200.0 mg/kg/injection, schedule: Q01DX001 (ip), vehicle: saline with Tween-80
[16] = dose: 400.0 mg/kg/injection, schedule: Q01DX001 (ip), vehicle: saline with Tween-80

In the case of `CCOC(=O)C1(N)CCCC1`, the T/C (dose: 15.0 mg/kg/injection, schedule: Q01DX Z (ip), vehicle: carboxymethylcellulose (CMC)) is reported as 105 % of control, the T/C (dose: 23.0 mg/kg/injection, schedule: Q01DX Z (ip), vehicle: carboxymethylcellulose (CMC)) is reported as 108 % of control and the T/C (dose: 31.3 mg/kg/injection, schedule: Q01DX015 (ip), vehicle: saline) is reported as 96 % of control. For the same molecule, the T/C (dose: 35.0 mg/kg/injection, schedule: Q01DX Z (ip), vehicle: carboxymethylcellulose (CMC)) was 117 % of control, the T/C (dose: 62.5 mg/kg/injection, schedule: Q01DX015 (ip), vehicle: saline) was 124 % of control and the T/C (dose: 83.0 mg/kg/injection, schedule: Q01DX Z (ip), vehicle: carboxymethylcellulose (CMC)) was 122 % of control. The T/C (dose: 125.0 mg/kg/injection, schedule: Q01DX015 (ip), vehicle: saline) was 150 % of control, the T/C (dose: 125.0 mg/kg/injection, schedule: Q01DX Z (ip), vehicle: carboxymethylcellulose (CMC)) was 122 % of control and the T/C (dose: 188.0 mg/kg/injection, schedule: Q01DX Z (ip), vehicle: carboxymethylcellulose (CMC)) was 110 % of control. For the same molecule, the T/C (dose: 250.0 mg/kg/injection, schedule: Q01DX015 (ip), vehicle: saline) was 157 % of control and the T/C (dose: 500.0 mg/kg/injection, schedule: Q01DX015 (ip), vehicle: saline) was 118 % of control.

In the case of `Cc1cccc(N2CCNCC2)c1`, the T/C (dose: 6.25 mg/kg/injection, schedule: Q04DX003 (ip), vehicle: saline) is reported as 93 % of control, the T/C [1] is reported as 96 % of control and the T/C (dose: 25.0 mg/kg/injection, schedule: Q04DX002 (ip), vehicle: saline with Tween-80) is reported as 101 % of control. For the same molecule, the T/C [2] was 102 % of control and the T/C (dose: 50.0 mg/kg/injection, schedule: Q04DX002 (ip), vehicle: saline with Tween-80) was 92 % of control.

For `ClCCN(CCCl)c1ccc(/C=N/N2CCN(/N=C/c3ccc(N(CCCl)CCCl)cc3)CC2)cc1`, the T/C [3] was 97 % of control, the T/C [4] was 92 % of control and the T/C [5] was 106 % of control.

In the case of `CCN(CC)CCNc1nc2ccc(C(=O)O)cc2s1`, the T/C [6] is reported as 100 % of control, the T/C [7] is reported as 98 % of control and the T/C (dose: 300.0 mg/kg/injection, schedule: Q01DX001 (ip), vehicle: saline) is reported as 94 % of control.

`CC1(C)CC2(CC(C)(C)c3cc(O)c(O)cc32)c2cc(O)c(O)cc21` was tested, and the T/C [8] was 95 % of control, the T/C [9] was 100 % of control and the T/C [10] was 100 % of control. For the same molecule, the T/C [11] was 105 % of control, the T/C [12] was 104 % of control and the T/C [13] was 102 % of control.

In the case of `CNc1ccccn1`, the T/C (dose: 75.0 mg/kg/injection, schedule: Q01DX001 (ip), vehicle: carboxymethylcellulose (CMC)) is reported as 95 % of control, the T/C (dose: 150.0 mg/kg/injection, schedule: Q01DX001 (ip), vehicle: carboxymethylcellulose (CMC)) is reported as 97 % of control and the T/C (dose: 300.0 mg/kg/injection, schedule: Q01DX001 (ip), vehicle: carboxymethylcellulose (CMC)) is reported as 101 % of control.

For `N#CCCP(CCC#N)CCCCCP(CCC#N)CCC#N`, the T/C [14] was 100 % of control, the T/C [15] was 92 % of control and the T/C [16] was 86 % of control.

With `CC(=O)Nc1c(Cl)cc(-c2ccc(F)cc2)cc1Cl` the T/C (dose: 15.0 mg/kg/injection, schedule: Q01DX001 (ip), vehicle: carboxymethylcellulose (CMC)) was 96 % of control, the T/C (dose: 30.0 mg/kg/injection, schedule: Q01DX001 (ip), vehicle: carboxymethylcellulose (CMC)) was 94 % of control and the T/C (dose: 60.0 mg/kg/injection, schedule: Q01DX001 (ip), vehicle: carboxymethylcellulose (CMC)) was 98 % of control.

With `CC12CCC(c3cn(C(=O)c4cccnc4)nc31)C2(C)C` (stereo not drawn) the T/C [9] was 92 % of control, the T/C [11] was 97 % of control and the T/C [13] was 95 % of control.

With `NS(=O)(=O)c1ccc(CNC(=O)c2ccc(C(=O)NCc3ccc(S(N)(=O)=O)cc3)cc2)cc1` the T/C (dose: 100.0 mg/kg/injection, schedule: Q01DX001 (ip), vehicle: saline) was 111 % of control, the T/C (dose: 200.0 mg/kg/injection, schedule: Q01DX001 (ip), vehicle: saline) was 103 % of control and the T/C (dose: 400.0 mg/kg/injection, schedule: Q01DX001 (ip), vehicle: saline) was 103 % of control.

With `Cn1c(=O)[nH]c(=O)c2c1[nH]c(=O)c(=O)n2C` the T/C (dose: 50.0 mg/kg/injection, schedule: Q01DX001 (ip), vehicle: carboxymethylcellulose (CMC)) was 101 % of control, the T/C [3] was 98 % of control and the T/C [4] was 95 % of control. For the same molecule, the T/C [5] was 106 % of control.

`c1cc[n+]2c(c1)-c1cccc[n+]1CC2` was tested, and the T/C (dose: 6.25 mg/kg/injection, schedule: Q01DX009 (ip), vehicle: saline) was 108 % of control, the T/C (dose: 12.5 mg/kg/injection, schedule: Q01DX009 (ip), vehicle: saline) was 104 % of control and the T/C [1] was 104 % of control. The T/C (dose: 15.0 mg/kg/injection, schedule: Q01DX001 (ip), vehicle: saline) was 95 % of control, the T/C [2] was 104 % of control and the T/C (dose: 30.0 mg/kg/injection, schedule: Q01DX001 (ip), vehicle: saline) was 102 % of control. The T/C (dose: 50.0 mg/kg/injection, schedule: Q04DX003 (ip), vehicle: saline) was 101 % of control, the T/C (dose: 60.0 mg/kg/injection, schedule: Q01DX001 (ip), vehicle: saline) was 102 % of control and the T/C [6] was 95 % of control.

For `Cc1cccc(/C2=C/CCCCCC2)c1`, the T/C (dose: 37.5 mg/kg/injection, schedule: Q01DX009 (ip), vehicle: saline) was 100 % of control, the T/C (dose: 75.0 mg/kg/injection, schedule: Q01DX001 (ip), vehicle: acetone) was 89 % of control and the T/C (dose: 75.0 mg/kg/injection, schedule: Q01DX009 (ip), vehicle: saline) was 103 % of control. The T/C (dose: 150.0 mg/kg/injection, schedule: Q01DX001 (ip), vehicle: acetone) was 88 % of control, the T/C (dose: 150.0 mg/kg/injection, schedule: Q01DX009 (ip), vehicle: saline) was 115 % of control and the T/C (dose: 225.0 mg/kg/injection, schedule: Q01DX009 (ip), vehicle: acetone) was 92 % of control. For the same molecule, the T/C (dose: 300.0 mg/kg/injection, schedule: Q01DX001 (ip), vehicle: acetone) was 93 % of control.

With `COc1cccc(NC(=S)Nc2ccccc2)c1` the T/C (dose: 100.0 mg/kg/injection, schedule: Q04DX002 (ip), vehicle: Klucel (hydroxypropylcellulose) (HPC)) was 95 % of control, the T/C (dose: 200.0 mg/kg/injection, schedule: Q04DX002 (ip), vehicle: Klucel (hydroxypropylcellulose) (HPC)) was 88 % of control and the T/C (dose: 400.0 mg/kg/injection, schedule: Q04DX002 (ip), vehicle: Klucel (hydroxypropylcellulose) (HPC)) was 111 % of control.

In the case of `CC1CCC2(O)C3(C)CC(=O)OC2(C1O)C1(O)C(C)C(O)(C(C)C)C(O)C31O` (stereo not drawn), the T/C (dose: 5.0 mg/kg/injection, schedule: Q01DX001 (ip), vehicle: saline) is reported as 101 % of control.

For `NC1=NC(=O)CS1`, the T/C [14] was 92 % of control, the T/C (dose: 100.0 mg/kg/injection, schedule: Q01DX009 (ip), vehicle: saline with Tween-80) was 105 % of control and the T/C (dose: 100.0 mg/kg/injection, schedule: Q04DX003 (ip), vehicle: saline) was 86 % of control. The T/C [15] was 103 % of control, the T/C (dose: 200.0 mg/kg/injection, schedule: Q01DX009 (ip), vehicle: saline with Tween-80) was 107 % of control and the T/C (dose: 200.0 mg/kg/injection, schedule: Q04DX003 (ip), vehicle: saline) was 93 % of control. For the same molecule, the T/C [16] was 95 % of control, the T/C (dose: 400.0 mg/kg/injection, schedule: Q01DX009 (ip), vehicle: saline with Tween-80) was 105 % of control and the T/C (dose: 400.0 mg/kg/injection, schedule: Q04DX003 (ip), vehicle: saline) was 86 % of control.

`CCOC(=O)CC1C(C)C(C)NC(C)C1C` (stereo not drawn) was tested, and the T/C [6] was 94 % of control and the T/C [7] was 103 % of control.

`CCCCN(Cc1ccccc1)C(=S)Nc1ccccc1` was tested, and the T/C [8] was 106 % of control, the T/C [10] was 108 % of control and the T/C [12] was 108 % of control.

In the case of `O=C(COc1ccc(Cl)cc1Cl)Nc1cc(C(F)(F)F)ccc1Cl`, the T/C (dose: 50.0 mg/kg/injection, schedule: Q01DX001 (ip), vehicle: other) is reported as 96 % of control, the T/C (dose: 100.0 mg/kg/injection, schedule: Q01DX001 (ip), vehicle: other) is reported as 107 % of control and the T/C (dose: 100.0 mg/kg/injection, schedule: Q04DX002 (ip), vehicle: gum acacia) is reported as 118 % of control. The T/C (dose: 200.0 mg/kg/injection, schedule: Q01DX001 (ip), vehicle: other) was 89 % of control, the T/C (dose: 200.0 mg/kg/injection, schedule: Q04DX002 (ip), vehicle: gum acacia) was 91 % of control and the T/C (dose: 400.0 mg/kg/injection, schedule: Q01DX001 (ip), vehicle: other) was 94 % of control. For the same molecule, the T/C (dose: 400.0 mg/kg/injection, schedule: Q04DX002 (ip), vehicle: gum acacia) was 103 % of control.
